# pIC50: −log10 of the molar value.
# Key:
# [1] = target: T1, FSH receptor (Homo sapiens, UniProt P23945); test: FSH Receptor Radioligand Membrane Binding Standard Pharmacological Test Procedure; set-up: expressed in transfected cells; details: [125I]FSH binding to membranes of CHO cells stably transfected with the human FSH receptor
# T1 sequence (P23945 18-695): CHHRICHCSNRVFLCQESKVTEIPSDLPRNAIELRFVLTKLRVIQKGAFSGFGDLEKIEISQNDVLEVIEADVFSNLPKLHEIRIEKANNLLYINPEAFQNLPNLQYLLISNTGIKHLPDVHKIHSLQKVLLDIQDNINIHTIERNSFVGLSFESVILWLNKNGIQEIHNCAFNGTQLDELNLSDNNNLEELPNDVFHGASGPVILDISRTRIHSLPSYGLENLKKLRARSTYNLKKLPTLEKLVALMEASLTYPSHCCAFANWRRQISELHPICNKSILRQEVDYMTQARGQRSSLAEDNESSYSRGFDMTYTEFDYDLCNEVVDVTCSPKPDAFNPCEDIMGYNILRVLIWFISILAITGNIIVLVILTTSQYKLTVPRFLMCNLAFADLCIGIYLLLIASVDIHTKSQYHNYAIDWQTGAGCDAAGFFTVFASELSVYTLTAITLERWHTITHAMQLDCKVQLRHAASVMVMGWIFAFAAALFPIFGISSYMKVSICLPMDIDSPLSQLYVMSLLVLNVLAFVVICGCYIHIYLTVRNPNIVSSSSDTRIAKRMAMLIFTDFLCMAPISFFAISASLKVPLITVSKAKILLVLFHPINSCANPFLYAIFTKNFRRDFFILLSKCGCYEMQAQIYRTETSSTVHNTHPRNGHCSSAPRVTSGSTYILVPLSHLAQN
# Experimental: FSH Receptor Radioligand Membrane Binding Standard Pharmacological Test Procedure
# Membrane Source: Chinese hamster ovarian cells stably transfected with the human FSH receptor were cultured (Ultra CHO medium containing 1% fetal bovine serum and 200 μg/mL G418) in and harvested. Cells were collected by centrifugation and resulting cell pellets were frozen and stored at −70° C.
# Membrane Receptor Preparation: Frozen cell pellets were weighed and resuspended in binding buffer to a final concentration of 30 mg wet weight/mL. Cell suspension for each pellet was homogenized using a Tempest homogenizer (setting=1; 5 strokes; VirTis, Gardiner, N.Y.). Cell homogenates were pooled and 35 mL aliquots were transferred to 50-mL polypropylene copolymer centrifuge tubes (Nalgene cat. #3110-0500). Tubes were spun at 12,000 rpm (SS34 rotor) for 12 min at 4° C. Resulting supernatant fractions were discarded and pellets were stored at −70° C. until use. On the day of the procedure, 35 mL binding buffer was added to each tube (35 mL membrane suspension was sufficient for three 96-well plates). The membrane pellet was dispersed by trituration using a pipet. The resulting suspension wass homogenized using a Tempest homogenizer (3 strokes at setting=1).
# Receptor Binding Test procedure: Membrane homogenate (100 μl) was added to each well of a 96-well microtiter plate (Falcon # 3077). All reactions were tested in triplicate. Test compound solutions (50 μl) were added to the designated wells. Total bound counts were determined by adding 50 μl binding buffer containing 4% DMSO to the designated wells. […] Plates were pre-incubated for 15 min at room temperature on shaking platform (setting=3). After preincubation [^125I]FSH (50 μl) was added to each well and plates were incubated for 2 h at room temperature on shaking platform (setting=3). The reaction was terminated by transfer of the membrane preparation to glass fiber filters (Blue Mat #11740; 102×256 mm; Skatron Instruments, Sterling, Va.) that had been pretreated with 1% BSA in wash buffer for at least 30 min, but not longer than 1 h using a 96-well microtiter vacuum harvester (Skatron Instruments). The membrane preparation was washed with 5 cycles of ice-cold wash buffer (200 μl/well/cycle) followed by a pulse wash of 3 cycles (100 μl/well/cycle). The total wash volume per well was 1.3 mL. The filters were dried by a 10 sec aspiration. Disks corresponding to each well of the microtiter plate were punched out of the filter mat into 12×75 mm polypropylene tubes. The radioactivity present on each of the disks was measured using a gamma counter.
# An FSH dose response curve (0.001, 0.01, 0.1, 1, 10, and 100 nM) was generated for each binding procedure to monitor procedure to procedrue variability.
# FSH Receptor Radioligand Membrane Binding Procedure Buffers and Reagents
# Binding buffer is prepared in 11 volumes containing Trizma-HCl, MgCl2, CaCl2 and sodium azide, the pH was adjusted to 7.2 with NaOH, and stored at 4° C. until use. BSA was weighed out on the day of the procedure and added to the amount of buffer required for the procedure (usually 150 mL). The protease inhibitors were prepared as 1 mg/mL stocks (aprotinin, leupeptin, and phosphoramidon were prepared in binding buffer without BSA and protease inhibitors; pepstatin and PMSF were prepared in methanol), stored in 1 mL aliquots at −70° C., and added to the binding buffer on the day of the procedure.
# Wash buffer was prepared containing Trizma-HCl, MgCl2 and EDTA, the pH was adjusted to 7.2 with NaOH, and stored at 4° C.
# Filter Soak Buffer (pH 7.2)
# BSA was weighed out on the day of the procedure and added to 300 mL of wash buffer. The filter soak buffer was used for two procedures before being discarded.
# A portion of the stock solution was diluted in binding buffer to a concentration of 200 pM.
# FSH Solution for Determining Non-specific Binding: Purified human FSH was prepared as a 100 μM solution in binding buffer without protease inhibitors. […]
# [2] = target: T1, FSH receptor; test: In Vitro Bio-test Procedure of Agonists and Antagonists to the FSH Receptor (cAMP accumulation in CHO-3D2 cells); type: cell-based; set-up: expressed in transfected cells; host or cells: CHO-3D2 cells
# Experimental: In Vitro Bio-test Procedure of Agonists and Antagonists to the FSH Receptor
# The compounds were subsequently diluted in sterile procedure medium (Optimem (Gibco/BRL, Grand Island, N.Y.)/0.1% BSA) prior to use in the bio-procedure.
# Preparation of CHO-3D2 Cells; CHO-3D2 cells were plated into 96-well Nunc tissue culture plates at a density of 30,000 cells/well in DMEM/F12 medium (Gibco/BRL, Grand Island, N.Y.) supplemented with 5% Fetal Bovine Serum (Hyclone, Fetal Clone II), 2 mM L-glutamine and penicillin/streptomycin (100 U/mL). Cells were plated one day prior to performing the bio-procedure.
# Procedure: On the day of procedure, the wells were washed two times with 100 ul/well of pre-warmed (37 deg C.) procedure medium. After aspirating the second wash, an additional 100 ul of procedure medium was added to each well and the cells pre-incubated for 30-45 minutes at 37 deg C. In a humidified incubator with 5%CO2/95% air. The cells were then challenged with varying dilutions of the test substance(s) in a 50 ul total incubation volume in procedure medium for 30 minutes at 37 deg C. in the humidified incubator. The challenge was terminated by the addition of 50 ul of 0.2 N HCl to each well. CAMP accumulation in the medium was measured by radioimmunoassay.
# Test Groups: In the 96-well format, the plate is organized into 12 columns each containing 8 rows of wells. The plate was split in half to test a single compound in both agonist and antagonist mode on the same plate.
# For agonist mode, compounds were tested using 5 different concentrations in a dose-response paradigm using one column as a control (challenge medium alone) in agonist mode.
# The 96-well format allowed for the capability to test 4 columns of compound, using one of the remaining columns for negative control (challenge medium alone) and the other remaining column for ampositive control (ED20 of FSH alone).
# The doses chosen to test each compound were extrapolated from the initial screening process (receptor binding data). Along with the test compounds, FSH was run in agonist mode using doses ranging from 0.1 ng/mL-1000 ng/mL as a postive control. Cytotoxicity of the compounds were screened by treating cells with the highest concentration of each compound used in the cAMP procedure for 30 minutes followed by washing of the cells 2 times with 100 ul PBS. The cells were then incubated for 5 min at 37 deg C. in the presence of 50 ug/mL Fluorescein diacetate and 20 ug/mL Propidium iodide in 100 ul PBS. The cells were washed two times with 100 ul PBS followed by examination of the cells under a fluorescence microscope using a 490 nm filter. Viable cells stained green throughout, while dead cells had red fluorescent nuclei.
# Analysis of Results: cAMP accumulation was expressed as fmol/mL. […] Data were analyzed statistically by analysis of variance and significant differences between treatments and control determined by Dunnett's test. In antagonist mode, a Duncan's test was used.
# Reference Compounds: Test compounds were compared to the effect of purified or recombinant human FSH.
smiles,measurement,setting,value
COc1ccc(C(=O)Nc2ccc(/C=C/c3ccc(NC(=O)c4ccc(OC)c(S(=O)(=O)NCCN5CCOCC5)c4)cc3S(=O)(=O)O)c(S(=O)(=O)O)c2)cc1S(=O)(=O)NCCN1CCOCC1 [Example 30n],pIC50,[1],5.74
same,pIC50,[2],5.26
"COCCN(CCOC)S(=O)(=O)c1cc(C(=O)Nc2ccc(/C=C/c3ccc(NC(=O)c4ccc(OC)c(S(=O)(=O)N(CCOC)CCOC)c4)cc3S(=O)(=O)O)c(S(=O)(=O)O)c2)ccc1OC [Example 30o, 2,2′-[(E)-1,2-Ethenediyl]bis[5-[[3-[[bis(2-methoxyethyl)amino]sulfonyl]-4-methoxybenzoyl]amino]benzenesulfonic Acid]]",pIC50,[1],5.62
same,pIC50,[2],5.21
"COc1ccc(C(=O)Nc2ccc(CCc3ccc(NC(=O)c4ccc(OC)c(S(=O)(=O)N5CCOCC5)c4)cc3S(=O)(=O)O)c(S(=O)(=O)O)c2)cc1S(=O)(=O)N1CCOCC1 [Example 30p, 2,2′-(1,2-Ethanediyl)bis[5-[[4-methoxy-3-(4-morpholinylsulfonyl)benzoyl]amino]benzenesulfonic Acid]]",pIC50,[1],5.60
same,pIC50,[2],4.96
C=CCS(=O)(=O)c1ccc(C(=O)Nc2ccc(/C=C/c3ccc(NC(=O)c4ccc(S(=O)(=O)CC=C)cc4)cc3S(=O)(=O)O)c(S(=O)(=O)O)c2)cc1 [Example 32a],pIC50,[1],5.46
same,pIC50,[2],5.64
"CS(=O)(=O)c1ccc(C(=O)Nc2ccc(/C=C/c3ccc(NC(=O)c4ccc(S(C)(=O)=O)s4)cc3S(=O)(=O)O)c(S(=O)(=O)O)c2)s1 [Example 32b, 2,2′-[(E)-1,2-Ethenediyl]bis[5-[[[5-(methylsulfonyl)-2-thienyl]carbonyl]amino]benzenesulfonic Acid]]",pIC50,[1],5.49
same,pIC50,[2],5.59
"COC(=O)C=CCS(=O)(=O)c1cccc(C(=O)Nc2ccc(C=Cc3ccc(NC(=O)c4cccc(S(=O)(=O)CC=CC(=O)OC)c4)cc3S(=O)(=O)O)c(S(=O)(=O)O)c2)c1 [Example 32e, 4-{3-[4-(2-{4-{3-(3-Methoxycarbonyl-prop-2-ene-1-sulfonyl)-benzoylamino]-2-sulfo-phenyl}-vinyl)-3-sulfo-phenylcarbomoyl]-benzenesulfonyl}-but-2-enoic Acid, Methyl Ester]",pIC50,[1],5.31
same,pIC50,"[2]; antagonist mode, inhibition of hFSH-induced cAMP accumulation (ED20 of FSH, […]), CHO-3D2 cells",5.05
"CCSc1ccc(C(=O)Nc2ccc(/C=C/c3ccc(NC(=O)c4ccc(SCC)c(S(=O)(=O)N5CCOCC5)c4)cc3S(=O)(=O)O)c(S(=O)(=O)O)c2)cc1S(=O)(=O)N1CCOCC1 [Example 32i, 2,2′-[(E)-1,2-Ethenediyl]bis[5-[[4-(ethylthio)-3-(4-morpholinylsulfonyl)benzoyl]amino]benzenesulfonic Acid]]",pIC50,[1],5.43
same,pIC50,[2],5.31
COCCOCCSc1ccc(C(=O)Nc2ccc(/C=C/c3ccc(NC(=O)c4ccc(SCCOCCOC)c(S(=O)(=O)N5CCOCC5)c4)cc3S(=O)(=O)O)c(S(=O)(=O)O)c2)cc1S(=O)(=O)N1CCOCC1 [Example 32o],pIC50,[1],5.82
same,pIC50,[2],6.00
"CCN(CC)S(=O)(=O)c1cc(C(=O)Nc2ccc(/C=C/c3ccc(NC(=O)c4ccc(OC)c(S(=O)(=O)N(CC)CC)c4)cc3S(=O)(=O)O)c(S(=O)(=O)O)c2)ccc1OC [Example 33c, 2,2′-[(E)-1,2-Ethenediyl]bis[5-[[3-[(diethylamino)sulfonyl]-4-methoxybenzoyl]amino]benzenesulfonic Acid]]",pIC50,[1],5.21
same,pIC50,[2],5.35
COc1ccc(C(=O)Nc2ccc(/C=C/c3ccc(NC(=O)c4ccc(OC)c(S(=O)(=O)N5CCCCCC5)c4)cc3S(=O)(=O)O)c(S(=O)(=O)O)c2)cc1S(=O)(=O)N1CCCCCC1 [Example 33f],pIC50,[1],4.80
same,pIC50,[2],4.96
"COc1ccc(C(=O)Nc2ccc(Sc3ccc(NC(=O)c4ccc(OC)c(S(=O)(=O)N5CCOCC5)c4)cc3S(=O)(=O)O)c(S(=O)(=O)O)c2)cc1S(=O)(=O)N1CCOCC1 [Example 33h, 2,2′-Thiobis[5-[[4-methoxy-3-(4-morpholinylsulfonyl)benzoyl]amino]benzenesulfonic Acid]]",pIC50,[1],4.64
same,pIC50,[2],4.17
"O=C(O)C=CCS(=O)(=O)c1cccc(C(=O)Nc2ccc(C=Cc3ccc(NC(=O)c4cccc(S(=O)(=O)CC=CC(=O)O)c4)cc3S(=O)(=O)O)c(S(=O)(=O)O)c2)c1 [Example 36c, 4-{3-[4-(2-{4-[3-(3-Carboxy-prop-2-ene-1-sulfonyl)-benzoylamino]-2-sulfo-phenyl}-vinyl)-3-sulfo-phenylcarbomoyl]-benzenesulfonyl}-but-2-enoic Acid]",pIC50,[1],5.27
same,pIC50,[2],5.02

# Reference: patent US6355633B1, “Aryl sulfonic acids and derivatives as FSH antagonists” (American Home Products Corporation, priority 1999, dated 2002)
